Measurements as given in the NIST ThermoML archive (doi:10.1021/je030102f).

Experiment: xn = mol fraction of the nth substance listed
Settings: 101.33 kPa, Liquid, vibrating tube

CC(C)=O [acetone] + O
mass density [kg/m3]
Settings | x1 = 0.0988 | x1 = 0.2193 | x1 = 0.2973 | x1 = 0.3998 | x1 = 0.4986 | x1 = 0.5903 | x1 = 0.6984 | x1 = 0.7934 | x1 = 0.8916 | x1 = 1
283.15 K | 966.507 | 932.823 | 913.382 | 889.08 | 868.988 | 853.092 | 836.647 | 824.028 | 812.997 | 801.669
288.15 K | 963.567 | 928.61 | 908.777 | 884.145 | 863.861 | 847.829 | 831.252 | 818.534 | 807.424 | 796.037
293.14 K | – | 924.322 | 904.105 | 879.148 | – | – | – | – | – | –
293.15 K | 960.497 | – | – | – | 858.674 | 842.508 | 825.797 | 812.982 | 801.797 | 790.355
298.14 K | 957.313 | 919.968 | 899.375 | 874.098 | – | 837.135 | 820.292 | 807.383 | 796.13 | –
298.15 K | – | – | – | – | 853.436 | – | – | – | – | 784.638
303.14 K | – | 915.544 | 894.587 | 868.996 | 848.142 | 831.707 | 814.735 | 801.735 | 790.413 | 778.876
303.15 K | 954.01 | – | – | – | – | – | – | – | – | –
308.14 K | – | – | – | – | – | 826.22 | – | – | – | –
308.15 K | 950.61 | 911.052 | 889.735 | 863.836 | 842.791 | – | 809.12 | 796.028 | 784.645 | 773.065
313.14 K | 947.117 | 906.488 | 884.822 | 858.617 | – | 820.677 | 803.446 | 790.262 | 778.818 | 767.205
313.15 K | – | – | – | – | 837.381 | – | – | – | – | –
318.14 K | – | 901.855 | 879.849 | 853.341 | 831.924 | – | – | 784.437 | 772.936 | 761.288
318.15 K | 943.497 | – | – | – | – | 815.068 | 797.707 | – | – | –
323.14 K | – | – | 874.812 | 848.021 | 826.399 | – | 791.9 | 778.546 | 766.99 | 755.314
323.15 K | 939.767 | 897.151 | – | – | – | 809.395 | – | – | – | –
